Row | Compound | melting point [°C]
1 | c1ccc(-c2nc3cnccc3o2)cc1 | 118 to 121
2 | CC1(C)C(=O)Nc2ccc(N)cc21 | 185 to 191
3 | CCCC1C(C(=O)OCC)C(O)(C(F)(F)F)OC(O)(C(F)(F)F)C1C(=O)OCC (stereo not given) | 128 to 132
4 | COc1cc(Cc2nc(NCC(C)C)c3c(C)c(C#N)sc3n2)cc(OC)c1OC | 129 to 131
5 | CCN(CC)S(=O)(=O)c1ccccc1S(N)(=O)=O | 156 to 159
6 | O=C(NCc1ccc(C(F)(F)F)c(F)c1)Nc1cccc2[nH]ccc12 | 198
7 | CC(C)(C)COC(=O)COc1ccc(C(=O)CBr)cc1 | 85 to 87
8 | N#CCc1ccc(-c2nc3ccccc3o2)cc1Br | 190 to 191
9 | CCOC(=O)C1=C(S(=O)(=O)Cl)CCCC1 | 31.5 to 32.5
10 | Nc1nc2ccccc2c2c1ncn2Cc1ccccc1 | 257 to 259
11 | CC(=O)C1CCC2C3CCC4CC(O)CCC4(C)C34OC4CC12C (stereo not given) | 160 to 162
12 | CC(C)CC(=O)Nc1ccc(-c2ccncc2)cc1 | 166 to 176
13 | CCOC(=O)C(=NOC)c1csc(NC(=O)OCC(Cl)(Cl)Cl)n1 | 125 to 128
14 | COc1ccc(C2(C#N)CCC(=NO)CC2)cc1OC1CCCC1 (stereo not given) | 50 to 53
15 | O=C(NCCCSc1ccncc1)c1ccccc1 | 120 to 121
16 | COC(=O)Cc1nc(-c2ccccc2)c(-c2ccccc2)s1 | 65 to 67
17 | CC(=O)OCCn1nc(O)c2[nH]c3cc(Cl)ccc3c(=O)c2c1=O | 307 to 309
18 | CNC(=O)Oc1ccc2c(ccn2Cc2ccncc2)c1 | 170
19 | Cn1c(SCCCN2CCc3ccc(NS(C)(=O)=O)cc3C2)nnc1-c1ccccc1 | 90
20 | Cc1cc(SC(C)C)c(NC(=O)CCCCCSc2nc3c(C)c(Cl)cc(C(C)C)c3o2)c(SC(C)C)n1 | 99 to 101
21 | Cc1nc(N2CCN(Cc3ccc(F)cc3)C2=O)sc1C(=O)NCc1ncco1 | 187 to 189
22 | CCOC(=O)/C=C/c1cn(-c2ccccc2)nc1OCc1ccc(OCc2nc(-c3ccco3)oc2C)cc1 | 142 to 143
23 | Cc1c(C)c2c(c(C)c1NC(=O)CC(C)(C)C)C(c1cccc(C=O)c1)CO2 (stereo not given) | 178 to 179
24 | CCCCCCCCNc1ccc2c(C)nc(CC3OC(CO)C(O)C3O)n2n1 (stereo not given) | 105 to 106
25 | O=C(N[C@@H](Cc1ccccc1)C(=O)O)c1cnccn1 | 166 to 169

Row | Compound | melting point [°C]
26 | O=C(c1ccc(-n2ccnc2)cc1)N1Cc2cccn2Cc2ccccc21 | 171 to 172
27 | Cn1cc(C(=O)O)cc1Cl | 201 to 203
28 | CN1CCN(c2ccc(Nc3ncc4c(Br)cc(-c5ccc(S(C)(=O)=O)cc5)n4n3)cc2)CC1 | 265 to 266
29 | CCOC(=O)Cc1cn(C)c2cc(C3CC3)nn2c1=O | 147 to 150
30 | O=C(c1cc(Br)c(O)c(Br)c1)c1c(Cc2ccccc2)oc2ccccc12 | 156 to 158
31 | COC(=O)c1ccc(Cn2c(C(=O)NC(N)=S)cc3cc(C)cc(C)c32)cc1 | 222 to 224
32 | CCS(=O)(=O)Nc1ccc2c(c1)S(=O)(=O)C=C(c1c(O)c3cc(F)ccc3n(CCC3CC3)c1=O)N2 | 140 to 142
33 | O=C1CN(c2ccccc2)C(=S)N1C1CCCCC1 | 156
34 | CC(C)c1ccc(-n2c(CC(=O)O)c(C(=O)O)c3cc(Oc4ccc(C(F)(F)F)cc4)ccc32)cc1 | 250 to 252
35 | NC(=O)Nc1ccc(-c2c[nH]c(=O)cn2)cc1 | > 300
36 | CC(C)(C)c1cc(C(C)(C)C)c(Br)c(C(C)(C)C)c1 | 170 to 172
37 | COC(=O)CC1(C)CCc2cc(C#N)ccc2C1=O (stereo not given) | 117
38 | CCC(=O)Nc1cc(-c2sc(C(C)O)nc2-c2cccc(C)c2)ccn1 (stereo not given) | 115 to 116
39 | CCOC(=O)c1cn2c(nc1=O)CCCCC2 | 156 to 157
40 | CCCN(CC)c1cc(C)nc(Oc2c(C)ccc(Cl)c2C)c1C | 74 to 76
41 | CCOC(=O)N(N)C(=O)c1cc(Cl)ccc1O | 172
42 | COc1ccc(S(=O)(=O)C2(CCCC#Cc3cccc(N)c3)SC(=O)NC2=O)cc1 (stereo not given) | 135 to 138
43 | Cc1cccc(C)c1N1CC(C)N(c2c(C)cccc2C)C1=NCC(=O)O (stereo not given) | 307 to 310
44 | CC(=O)NNC(=S)N1N=C(c2ccc([N+](=O)[O-])cc2)c2cc3c(cc2CC1C)OCO3 (stereo not given) | 118
45 | CC1(C2CCCC2)Cc2cc(OS(=O)(=O)C(F)(F)F)c(Cl)c(Cl)c2C1=O (single isomer, unassigned; (+)) | 104 to 106
46 | Cc1ccccc1NC(=O)c1ccccc1C(c1ccc(O)cc1)c1ccc(O)cc1 | 267 to 269
47 | COc1ccc(C(=S)Nc2ccccc2)cc1NS(=O)(=O)c1cc(Cl)cc(Cl)c1 | 206 to 208
48 | COc1ccc(OC)c(Sc2ncccc2C(=O)NCC23CC4CC(CC(C4)C2)C3)c1 | 135 to 136
49 | CC(C)n1c(=O)n(C(=O)NCC2CCN(CC3(C(=O)O)CCOCC3)CC2)c2ccccc21 | 176
50 | O=c1[nH]c2ccc3c(c2o1)OC(CNCc1ccccc1)CO3 (stereo not given) | 220

Source: a melting point compilation (Tetko et al.; mined from patent text by program, amines drawn as free bases though some values may be those of a salt)
